Results reported in the supplement of paper PMC10307832.

Assays:
Assay in all cases: relative viability (nuclei count vs DMSO), 5 days (fraction); higher = more cells survive
Alpelisib + Navitoclax = compound: Cc1nc(NC(=O)N2CCC[C@H]2C(N)=O)sc1-c1ccnc(C(C)(C)C(F)(F)F)c1 [Alpelisib] + CC1(C)CCC(c2ccc(Cl)cc2)=C(CN2CCN(c3ccc(C(=O)NS(=O)(=O)c4ccc(N[C@H](CCN5CCOCC5)CSc5ccccc5)c(S(=O)(=O)C(F)(F)F)c4)cc3)CC2)C1 [Navitoclax] (partner 0.5 µM)
Method in brief: (§1)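 Values are medians from duplicate plates. Each reflects relative viability, defined as the nuclei count of treated wells over that of vehicle wells. Lung cancer cell lines in 1536-well plates were pin-tool dosed one day after seeding with one drug alone or with a fixed anchor-drug dose plus five library-drug doses (not always all listed) in √10 steps, then fixed, stained and imaged at 4× after 5 days.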

OSI-027 + Olaparib = compound: COc1cccc2cc(-c3nc([C@H]4CC[C@H](C(=O)O)CC4)n4ncnc(N)c34)[nH]c12 [OSI-027] + O=C(c1cc(Cc2n[nH]c(=O)c3ccccc23)ccc1F)N1CCN(C(=O)C2CC2)CC1 [Olaparib] (partner 8 µM)
Method in brief: as §1

OSI-027 + Palbociclib = compound: COc1cccc2cc(-c3nc([C@H]4CC[C@H](C(=O)O)CC4)n4ncnc(N)c34)[nH]c12 [OSI-027] + CC(=O)c1c(C)c2cnc(Nc3ccc(N4CCNCC4)cn3)nc2n(C2CCCC2)c1=O [Palbociclib] (partner 0.5 µM)
Method in brief: as §1

Alpelisib + Pictilisib = compound: Cc1nc(NC(=O)N2CCC[C@H]2C(N)=O)sc1-c1ccnc(C(C)(C)C(F)(F)F)c1 [Alpelisib] + CS(=O)(=O)N1CCN(Cc2cc3nc(-c4cccc5[nH]ncc45)nc(N4CCOCC4)c3s2)CC1 [Pictilisib] (partner 1 µM)
Method in brief: as §1

| Cell Line | relative viability (Alpelisib + Navitoclax; first compound 0.04 µM) | relative viability (Alpelisib + Navitoclax; first compound 0.1265 µM) | relative viability (Alpelisib + Navitoclax; first compound 0.4 µM) | relative viability (Alpelisib + Navitoclax; first compound 1.265 µM) | relative viability (Alpelisib + Navitoclax; first compound 4 µM) | relative viability (OSI-027 + Olaparib; first compound 0.01 µM) | relative viability (OSI-027 + Olaparib; first compound 0.03162 µM) | relative viability (OSI-027 + Olaparib; first compound 0.1 µM) | relative viability (OSI-027 + Olaparib; first compound 0.3162 µM) | relative viability (OSI-027 + Olaparib; first compound 1 µM) | relative viability (OSI-027 + Palbociclib; first compound 0.01 µM) | relative viability (OSI-027 + Palbociclib; first compound 0.03162 µM) | relative viability (OSI-027 + Palbociclib; first compound 0.1 µM) | relative viability (OSI-027 + Palbociclib; first compound 0.3162 µM) | relative viability (OSI-027 + Palbociclib; first compound 1 µM) | relative viability (Alpelisib + Pictilisib; first compound 0.04 µM) | relative viability (Alpelisib + Pictilisib; first compound 0.1265 µM) | relative viability (Alpelisib + Pictilisib; first compound 0.4 µM) | relative viability (Alpelisib + Pictilisib; first compound 1.265 µM) | relative viability (Alpelisib + Pictilisib; first compound 4 µM) |
| --- | --- | --- | --- | --- | --- | --- | --- | --- | --- | --- | --- | --- | --- | --- | --- | --- | --- | --- | --- | --- |
| NCI-H441 | 0.571 | 0.434 | 0.8 | 0.43 | 0.552 | 0.649 | 0.58 | 0.548 | 0.494 | 0.3 | 0.165 | 0.205 | 0.178 | 0.146 | 0.166 | 0.438 | 0.448 | 0.547 | 0.382 | 0.41 |
| NCI-H1395 | 1.18 | 1.12 | 1.45 | 0.984 | 0.927 | 0.525 | 0.412 | 0.48 | 0.376 | 0.362 | 0.654 | 0.609 | 0.529 | 0.45 | 0.505 | 0.493 | 0.673 | 0.663 | 0.615 | 0.492 |
| CAL-12T | 1.35 | 1.29 | 1.22 | 1.16 | 1.47 | 0.751 | 0.749 | 0.777 | 0.53 | 0.335 | 0.427 | 0.432 | 0.28 | 0.313 | 0.22 | 0.388 | – | 0.65 | – | 0.329 |
| 201T | 1.16 | 1.16 | 1.2 | 1.15 | 1.14 | 0.909 | 0.908 | 0.838 | 0.887 | 0.802 | 0.354 | 0.36 | 0.342 | 0.368 | 0.38 | 0.655 | 0.725 | 0.637 | 0.642 | 0.62 |
| SK-LU-1 | 0.781 | 0.788 | 0.845 | 0.814 | 0.654 | 0.399 | 0.43 | 0.396 | 0.359 | 0.265 | 0.373 | 0.381 | 0.394 | 0.302 | 0.268 | 0.592 | 0.484 | 0.656 | 0.594 | 0.536 |
| LC-2-ad | 0.441 | 0.394 | 0.364 | 0.332 | 0.285 | 0.774 | 0.721 | 0.836 | 0.87 | 0.737 | 0.548 | 0.46 | 0.516 | 0.528 | 0.344 | 0.443 | 0.435 | 0.434 | 0.296 | 0.415 |
| NCI-H1793 | 0.419 | 0.335 | 0.356 | 0.376 | 0.365 | 0.866 | 0.791 | 0.729 | 0.363 | 0.233 | 0.3 | 0.3 | 0.236 | 0.187 | 0.181 | 0.363 | 0.486 | 0.432 | 0.328 | 0.314 |
| NCI-H1944 | 0.964 | 1.13 | 1.09 | 0.824 | 0.617 | 0.371 | 0.373 | 0.422 | 0.355 | 0.265 | 0.336 | 0.3 | 0.327 | 0.234 | 0.205 | 0.331 | 0.386 | 0.349 | 0.344 | 0.336 |
